Assay results: patent US11085056B2, “Transfection complexes and methods of using the same” (MOLECULAR TRANSFER, INC., priority 2015, dated 2021)

Experiments:
[1] = system: some examined cell types; test: Transfection expression and % cells transfected over the no peptide control; format: cell-based; settings: on some examined cell types
Experimental: (§1) Cells were plated to so that on the day of transfection the cells were 60-70% confluent in 96 well tissue culture plates. A DOMTA/DOPE Lipid solution (1:1 molar ratio) at 2 mg/mL in water were mixed with an equal volume of surface ligand peptides that had the nucleic acid binding moiety RRRRRRRRRRRR (SEQ ID NO: 109) covalently linked to the n terminus of each peptide during peptide synthesis. Peptides were at 2 mg/mL in water. The DOTMA/DOPE and the surface ligand peptide solution the transfection reagent was diluted 1 to 1 (v/v) in water. DOMTA/DOPE/PEPTIDE solutions were added to 0.1 mL of a plasmid DNA solution (EF1Alpha eGFP plasmid) at 5 μg/mL in OptiMEM. Lipofectamine 2000 was obtained from Life Technologies.
(§2) All solutions were at room temperature. A volume of 0.2 mL of a 5 μg/mL solution of DNA was aliquoted into each well of a non-tissue cultured treated plate. 4.0 μL of transfection reagents were added to DNA solutions respectively. The transfection reagent and DNA solution was mixed by pipetting up and down twice. Transfection complexes were formed for 10 minutes. After 10 minutes, 0.01 or 0.02 mL of the transfection complex was added to cells. HuVEC, HeLa, human adult keratinocytes, human primary adult fibroblast, and rat cortical neurons all respectively received 0.01 mL of the tramsfectopm complex. Human skeletal muscle cells, mouse C2C12 cells, Jurkat, and THP-1 cells received 0.02 mL of the transfection complex. Cells were incubated for 42 hours at 37° C. at 5% CO2. Plates were read on a fluorescent plate reader. Cells were also examined visually under a microscope to assess the extent of transfection (in terms of the percent of cells transfected) with a fluorescent microscope. Other modes of analysis, for example quantification with B-galactosidase or luciferase reports plasmids can also be used. […] Surface ligand that caused increase expression of GFP over the lipid DOTMA with no surface ligand were considered to enhance transfection or had higher % cells transfected were considered to enhance transfection. Peptides that gave greater than 2 fold enhancement are noted in bold and could be further optimized by adding different transfection enhancers or could be used with different cationic lipids or polymers.

[2] = system: C2C12 Cells; test: Transfection of C2C12 cells with DOTMA/DOPE/peptide and eGFP plasmid, fluorescent plate reader; format: cell-based, mouse; settings: DOTMA/DOPE 1:1 plus peptide with RRRRRRRRRRRR (SEQ ID NO: 109) at n terminus; EF1Alpha eGFP plasmid; 0.02 mL complex; 42 hours
Experimental: as §1, §2

[3] = system: HeLa Cells; test: Transfection of HeLa cells with DOTMA/DOPE/peptide and eGFP plasmid, fluorescent plate reader; format: cell-based; settings: DOTMA/DOPE 1:1 plus peptide with RRRRRRRRRRRR (SEQ ID NO: 109) at n terminus; EF1Alpha eGFP plasmid; 0.01 mL complex; 42 hours
Experimental: as §1, §2

[4] = system: Human Fibroblast Cells; test: Transfection of human fibroblast cells with DOTMA/DOPE/peptide and eGFP plasmid, fluorescent plate reader; format: cell-based; settings: DOTMA/DOPE 1:1 plus peptide with RRRRRRRRRRRR (SEQ ID NO: 109) at n terminus; EF1Alpha eGFP plasmid; 0.01 mL complex; 42 hours
Experimental: as §1, §2

[5] = system: HeLa Cells; test: Transfection of HeLa cells with DOTMA/SEQ ID NO: 72/peptide compared with Lipofectamine 2000; format: cell-based; settings: fusogenic peptide 0.1 mg/mL
Experimental: as §1, §2
The fusogenic peptide was added to the DOMTA/peptide formulation to achieve a final concentration of 0.1 mg/mL to see if transfection reagents were further enhanced by the addition of a fusogenic peptide and could provide higher transfection efficiency into HeLa cells and expression than the commercially available Lipofectamine 2000.

[6] = system: HuVec Cells; test: Transfection of HuVec cells with DOTMA/DOPE/peptide and eGFP plasmid, fluorescent plate reader; format: cell-based; settings: DOTMA/DOPE 1:1 plus peptide with RRRRRRRRRRRR (SEQ ID NO: 109) at n terminus; EF1Alpha eGFP plasmid; 0.01 mL complex; 42 hours
Experimental: as §1, §2

[7] = system: Jurkat Cells; test: Transfection of Jurkat cells with DOTMA/DOPE/peptide and eGFP plasmid, fluorescent plate reader; format: cell-based; settings: DOTMA/DOPE 1:1 plus peptide with RRRRRRRRRRRR (SEQ ID NO: 109) at n terminus; EF1Alpha eGFP plasmid; 0.02 mL complex; 42 hours
Experimental: as §1, §2

[8] = system: NL-1 iPS Cells; test: Transfection of NL-1 iPS cells with DOTMA/DOPE/peptide and eGFP plasmid, fluorescent plate reader; format: cell-based; settings: DOTMA/DOPE 1:1 plus peptide with RRRRRRRRRRRR (SEQ ID NO: 109) at n terminus; EF1Alpha eGFP plasmid; 42 hours
Experimental: as §1, §2

[9] = 0.1 μL of DOTMA/SEQ ID NO: 72/Peptide in well of a 96 well plate
[10] = 0.2 μL of DOTMA/SEQ ID NO: 72/Peptide in well of a 96 well plate
[11] = 0.3 μL of DOTMA/SEQ ID NO: 72/Peptide in well of a 96 well plate
[12] = 0.4 μL of DOTMA/SEQ ID NO: 72/Peptide in well of a 96 well plate

Row | Substance | transfection expression and the % cells transfected over the no peptide control [1] | RF (Relative Fluorescence) of Transfection of C2C12 Cells [2] | RF (Relative Fluorescence) of Transfection of HeLa Cells [3] | RF (Relative Fluorescence) of Transfection of Human Fibroblast Cells [4] | RF (Relative Fluorescence), DOTMA/SEQ ID NO: 72/Peptide, HeLa Cells [5, 9] | RF (Relative Fluorescence), DOTMA/SEQ ID NO: 72/Peptide, HeLa Cells [5, 10] | RF (Relative Fluorescence), DOTMA/SEQ ID NO: 72/Peptide, HeLa Cells [5, 11] | RF (Relative Fluorescence), DOTMA/SEQ ID NO: 72/Peptide, HeLa Cells [5, 12] | RF (Relative Fluorescence) of Transfection of HuVec Cells [6] | RF (Relative Fluorescence) of Transfection of Jurkat Cells [7] | RF (Relative Fluorescence) of Transfection of NL-1 iPS Cells [8]
1 | 268 (GGFLKYTVSYDI; Peptidic transfection agent) [compound 268] | increased | 2568 | 25885 | 4568 | 10162 | 9934 | 10792 | 9519 | 5403 | 3236 | 15697
2 | 323 (HQQDLGTAGSCLRKFSTMFLF; Peptidic transfection agent) [compound 323] | increased | 7698 | 14067 | 4826 | 15537 | 16620 | 10839 | 9244 | 12815 | 2900 | 21694
3 | 326 (RLVSYSGVLFFLK; Peptidic transfection agent) [compound 326] | increased | 8553 | 18946 | 3070 | 6887 | 9487 | 10330 | 9227 | 4932 | 3018 | 9239
4 | 328 (NWRHISYITRFG; Peptidic transfection agent) [compound 328] | increased | 5507 | 32528 | 5641 | 11037 | 12229 | 10801 | 10951 | 3614 | 4770 | 8611
5 | 336 (GEFYFDLRLKGDK; Peptidic transfection agent) [compound 336] | increased | 9647 | 25262 | 10449 | 14442 | 16702 | 13434 | 11334 | 5366 | 4813 | 14875
6 | 341 (LRAHAVDVNG; Peptidic transfection agent) [compound 341] | increased | 2141 | 4108 | 2284 | 6406 | 7469 | 8020 | 7546 | 15906 | 18042 | 20446
